Literature values as cited in US20240293312A1, “PHARMACEUTICAL COMPOSITIONS OF 3-(4-AMINO-1-OXO-1, 3 DIHYDRO-ISOINDOL-2-YL)-PIPERIDINE-2, 6-DIONE” (priority 2021, published 2024).

Nc1cccc2c1CN(C1CCC(=O)NC1=O)C2=O (stereo not shown) [Lenalidomide, 3-(4-amino-1-oxo-1,3-dihydro-2H-isoindol-2-yl) piperidine-2,6-dione]
solubility (in words): soluble in organic solvent/water mixtures, and buffered aqueous solvents
